Source: patent US7795226B2, “Control of radiation injury” (Biotempt B.V., priority 2006, dated 2010)

Columns and labels:
gamma-irradiated mice = conditions: cited from earlier work; for protection against gamma-irradiation (in words): mouse, in vivo
[1] = test system: BALB/c mice exposed whole body to 10 Gy 137Cs-γ-irradiation; assay: Whole body γ-irradiation (10 Gy), peptide 1.5 hours before irradiation; assay type: in vivo; conditions: 10 mg/kg i.p. 1.5 hours before 10 Gy; for Watery eyes / Weight loss: affected/total; for Mortality: dead/total
Method: (§1) In the first experiment, 12-week-old female BALB/c mice were treated intraperitoneally with a single injection of either PBS (n=9) or with a peptide (LQGV (SEQ ID NO:117), VLPALP (SEQ ID NO:140), LPGCPRGVNPVVS (SEQ ID NO:114), MTRVLQGVLPALPQVVC (SEQ ID NO:113); n=8, 10 mg/kg). One and a half hours after the treatment, mice were exposed whole body to a single dose of 10 Gy ^137Cs-γ-irradiation. In the second experiment, 12-week-old female BALB/c mice were first exposed whole body to a single dose of 10 Gy ^137Cs-γ-irradiation and then 1.5 hours after the irradiation treated intraperitoneally with a single injection of either PBS (n=9) or with a peptide (n=8 or 9, 10 mg/kg).

[2] = test system: BALB/c mice exposed whole body to 10 Gy 137Cs-γ-irradiation; assay: Whole body γ-irradiation (10 Gy), peptide 1.5 hours after irradiation; assay type: in vivo; conditions: 10 mg/kg i.p. 1.5 hours after 10 Gy; for Watery eyes / Weight loss: affected/total; for Mortality: dead/total
Method: as §1

[3] = test system: high dose LPS (E. coli 026:B6)-induced septic shock in BALB/c mice; assay: high dose LPS-induced septic shock, peptide administered twice; assay type: in vivo; conditions: peptide twice (t = 2 and 24 hours) 5 mg/kg
Method: (§2) Mice used in sepsis or septic shock experiments: Female BALB/c mice of eight to twelve weeks of age were used for all experiments. The animals were bred in our facility under specific pathogen-free conditions according to the protocols described in the […] of European Laboratory Animal Science Associations (FELASA) Working group on Animal Health (Laboratory Animals 28:1-24, 1994).
(§3) Injection protocols: For the endotoxin model, BALB/c mice were injected i.p. with 150-300 μg LPS (E. coli 026:B6; Difco Lab., Detroit, Mich., USA). Control groups were treated with PBS i.p. only. To test the effect of peptides, they were dissolved in PBS and injected i.p. at predetermined points in time after LPS treatment.
(§4) Mice were scored for sickness severity using the following measurement scheme: • 0 No abnormalities. • 1 Percolated fur, but no detectable behavior differences compared to normal mice. • 2 Percolated fur, huddle reflex, responds to stimuli (such as tap on cage), just as active during handling as healthy mouse. • 3 Slower response to tap on cage, passive or docile when handled, but still curious when alone in a new setting. • 4 Lack of curiosity, little or no response to stimuli, quite immobile. • 5 Labored breathing, inability or slow to self-right after being rolled onto back (moribund, sacrificed). • D Dead.
A second set of septic shock experiments were set up to determine which of the peptides LQG, LQGV (SEQ ID NO:117), VLPALP (SEQ ID NO:140), VLPALPQ (SEQ ID NO:143), MTR, MTRV (SEQ ID NO:119), VVC or AQG, AQGV (SEQ ID NO:120), LAG and LAGV (SEQ ID NO:121) were capable of inhibiting high dose LPS-induced septic shock in mice by treating mice with a double dose of peptide at two and 24 hours after LPS treatment. At each treatment, peptides were used at 5 mg/kg bodyweight. BALB/c mice were injected i.p. with high doses LPS (E. coli 026:B6; Difco Lab., Detroit, Mich. USA), predetermined to be leading to 80 to 100% mortality in 24 to 72 hours.

[4] = test system: LPS (E. coli 026:B6)-induced septic shock in BALB/c mice; assay: LPS-induced septic shock, single dose of peptide; assay type: in vivo; conditions: single dose 5 mg/kg
Method: as §2, §3, §4
A first set of septic shock experiments were set up to determine which of the peptides LQG, LQGV (SEQ ID NO:117), VLPALP (SEQ ID NO:140), VLPALPQ (SEQ ID NO:143), MTR, MTRV (SEQ ID NO:119), VVC or QVVC (SEQ ID NO:118) were capable of inhibiting lipopolysaccharide (LPS)-induced septic shock in mice by treating mice with a single dose of peptide at two hours after LPS treatment. Peptides were used at 5 mg/kg bodyweight. BALB/c mice were injected i.p. with escalating doses LPS (E. coli 026:B6; Difco Lab., Detroit, Mich. USA), predetermined to be leading to 80 to 100% mortality in 24 to 72 hours.
To test the effect of peptide early in the development of shock, mice were treated at two hours or at 24 hours after treatment with varying doses of LPS by i.p. injection with test peptide at 5 mg/kg bodyweight.

[5] = test system: cell-cycle marker pCDG and auxin-responsive marker DR5::GUS; assay: Arabidopsis thaliana seedling cell-cycle analysis (GUS markers)
Method: To further study anti-cell-cycle activity of various oligopeptides, a proliferation experiment in Arabidopsis Thaliana seedlings was performed. The aim was to test a group of 140 oligopeptides of varying length for their effect on plant marker gene expression during rapid growth when avid cell division occurs.
The peptides were re-suspended in 1× Phosphate Buffer Saline (PBS) pH 8 to a final concentration of 5 mg/ml. The obtained solutions were then divided through 96-well round bottom plates (Corning Incorporated) at 40 microliters per well. Plates were stored before use at […] for four days. Seeds of Arabidopsis thaliana ecotype Ws-0 were surface sterilized in 2% commercial bleach (Gloria) for ten minutes and washed five times with sterile MQ water. The seeds were then re-suspended with 0.1% agar and plated on MS20 plates supplemented with 80 mg/l Kanamycin.
The plates were placed at […] for two nights and then transferred to a climate room at […] and a 16/8 hours photoperiod. After four days of growth, the seedlings were transferred to 96-well plates containing the peptide solutions (four seedlings per well) and incubated for four and eight hours.
For this experiment, Arabidopsis homozygous seedlings harboring two reporter genes fused to GUS were used. […] After incubation with the compounds, the seedlings were stained for GUS. The staining reaction was performed in 100 mM sodium phosphate buffer (pH 7.0) that contained 10 mM EDTA, 10% DMSO, 0.1% Triton X-100, 2 mM X-Gluc, 0.5 mM K3Fe(CN)6 and 0.5 mM K4Fe(CN)6 at […] for 16 hours. […] Seedlings were fixed and cleared in chloral hydrate solution for detailed microscopic observation and photography under a microscope equipped with DIC optics.
Peptides were tested for an effect on marker gene expression on rapidly growing Arabidopsis young seedlings. This was monitored by changes on GUS distribution in different organs: root, root-hypocotyl transition zone and cotyledons.

[6] = test system: LPS (E. coli 026:B6)-induced sepsis in BALB/c mice; assay: endotoxin shock survival after early or late treatment with peptide; assay type: in vivo
Method: as §2, §3
A further set of septic shock experiments were set up to determine which of the peptides LQG, LQGV (SEQ ID NO:117), VLPALP (SEQ ID NO:140), VLPALPQ (SEQ ID NO:143), MTR, MTRV (SEQ ID NO:119), VVC or AQGV (SEQ ID NO:120) under study were most suited to be used early and/or late after or throughout the development of shock. For determining the percent of endotoxin shock survival after late or early treatment with peptide, BALB/c mice were injected i.p. with 300 μg LPS (E. coli 026:B6; Difco Lab., Detroit, Mich. USA), predetermined to be leading to 100% mortality in 48 hours without peptide treatment.
To evaluate the effect of peptide treatment at an early or late point in time of development of shock, mice were treated at two hours or at 24 hours after LPS injection by i.p. injection with test peptide at 5 mg/kg bodyweight. The mice were followed for 84 hours instead of for 48 hours in the earlier experiments.

C[C@]12CC[C@H]3[C@@H]([C@@H](O)C=C4C[C@@H](O)CC[C@@]43C)[C@@H]1CC[C@@H]2O [AET, 5-androstene-3B,7B, 17B-triol]
protection against gamma-irradiation (in words) (gamma-irradiated mice): No protection was observed

C[C@]12CC[C@H](O)CC1=CC[C@@H]1[C@@H]2CC[C@]2(C)C(=O)CC[C@@H]12 [DHEA, dehydroepiandrosterone]
protection against gamma-irradiation (in words) (gamma-irradiated mice): No protection was observed

C[C@]12CC[C@H]3[C@@H](CC=C4C[C@@H](O)CC[C@@]43C)[C@@H]1CC[C@@H]2O [Peptide 5-AED, 5-androstenediol]
dose reduction factor (gamma-irradiated mice; sc administration prior to WBI, from probit survival curves): 1.3

LPGCPRGVNPVVS
Watery eyes ([1]; day 0 after irradiation): 0/8 | Weight loss ([1]; day 0 after irradiation): 0/8 | Mortality ([1]; day 0 after irradiation): 0/8 | Mortality ([1]; day 3 after irradiation): 0/8 | Watery eyes ([1]; day 4 after irradiation): 1/8 | Weight loss ([1]; day 4 after irradiation): 8/8 | Mortality ([1]; day 4 after irradiation): 0/8 | Mortality ([1]; day 5 after irradiation): 0/8 | Mortality ([1]; day 6 after irradiation): 4/8 | Mortality ([1]; day 7 after irradiation): 8/8 | Watery eyes ([2]; day 0 after irradiation): 0/8 | Weight loss ([2]; day 0 after irradiation): 0/8 | Mortality ([2]; day 0 after irradiation): 0/8 | Mortality ([2]; day 3 after irradiation): 0/8 | Watery eyes ([2]; day 4 after irradiation): 0/8 | Weight loss ([2]; day 4 after irradiation): 8/8 | Mortality ([2]; day 4 after irradiation): 0/8 | Mortality ([2]; day 5 after irradiation): 0/8 | Mortality ([2]; day 6 after irradiation): 6/8 | Mortality ([2]; day 7 after irradiation): 8/8

MTRVLQGVLPALPQVVC [residues 41-57 of loop 2 of the beta-subunit of hCG]
Watery eyes ([1]; day 0 after irradiation): 0/8 | Weight loss ([1]; day 0 after irradiation): 0/8 | Mortality ([1]; day 0 after irradiation): 0/8 | Mortality ([1]; day 3 after irradiation): 0/8 | Watery eyes ([1]; day 4 after irradiation): 1/8 | Weight loss ([1]; day 4 after irradiation): 1/8 | Mortality ([1]; day 4 after irradiation): 0/8 | Mortality ([1]; day 5 after irradiation): 0/8 | Mortality ([1]; day 6 after irradiation): 7/8 | Mortality ([1]; day 7 after irradiation): 8/8 | Watery eyes ([2]; day 0 after irradiation): 0/9 | Weight loss ([2]; day 0 after irradiation): 0/9 | Mortality ([2]; day 0 after irradiation): 0/9 | Mortality ([2]; day 3 after irradiation): 0/9 | Watery eyes ([2]; day 4 after irradiation): 0/9 | Weight loss ([2]; day 4 after irradiation): 9/9 | Mortality ([2]; day 4 after irradiation): 0/9 | Mortality ([2]; day 5 after irradiation): 0/9 | Mortality ([2]; day 6 after irradiation): 5/9 | Mortality ([2]; day 7 after irradiation): 9/9

VVC
mice with sickness score 1, effect at t = 48 hours ([3]; LPS dose 10.5): 2 | mice with sickness score 2, effect at t = 24 hours ([3]; LPS dose 10.5): 5 | mice with sickness score 2, effect at t = 48 hours ([3]; LPS dose 10.5): 3 | mice with sickness score 1, effect at t = 48 hours ([3]; LPS dose 11): 2 | mice with sickness score 2, effect at t = 24 hours ([3]; LPS dose 11): 6 | mice with sickness score 2, effect at t = 48 hours ([3]; LPS dose 11): 4 | mice scored D (dead), effect at t = 24 hours ([4]; LPS dose 7**): 1 | mice scored D (dead), effect at t = 48 hours ([4]; LPS dose 7**): 3 | mice with sickness score 1, effect at t = 48 hours ([4]; LPS dose 7**): 1 | mice with sickness score 2, effect at t = 48 hours ([4]; LPS dose 7**): 1 | mice with sickness score 3, effect at t = 24 hours ([4]; LPS dose 7**): 2 | mice with sickness score 3, effect at t = 48 hours ([4]; LPS dose 7**): 1 | mice with sickness score 4, effect at t = 24 hours ([4]; LPS dose 7**): 1 | mice with sickness score 5, effect at t = 24 hours ([4]; LPS dose 7**): 2 | mice with sickness score 2, effect at t = 48 hours ([4]; LPS dose 7*): 4 | mice with sickness score 3, effect at t = 24 hours ([4]; LPS dose 7*): 4 | mice with sickness score 4, effect at t = 24 hours ([4]; LPS dose 7*): 2 | mice with sickness score 5, effect at t = 48 hours ([4]; LPS dose 7*): 2 | mice with sickness score 1, effect at t = 48 hours ([4]; LPS dose 10): 2 | mice with sickness score 2, effect at t = 24 hours ([4]; LPS dose 10): 2 | mice with sickness score 2, effect at t = 48 hours ([4]; LPS dose 10): 2 | mice with sickness score 3, effect at t = 24 hours ([4]; LPS dose 10): 2 | mice with sickness score 4, effect at t = 24 hours ([4]; LPS dose 10): 2 | mice with sickness score 5, effect at t = 48 hours ([4]; LPS dose 10): 2 | identified as useful peptide for treatment of radiation injury from cell-cycle studies in plants and in vitro proliferation studies ([5]; Results from Examples 9 and 10): useful | effect on cell-cycle marker (pCDG) and auxin-responsive marker (DR5::GUS) (in words) ([5]; seedlings incubated four and eight hours, 5 mg/ml peptide solution): clear effect on the tested markers | % Survival ([6]; 0 hours, peptide 5 mg/kg 2 hours after LPS): 100% | % Survival ([6]; 0 hours, peptide 5 mg/kg 24 hours after LPS): 100% | % Survival ([6]; 14 hours, peptide 5 mg/kg 2 hours after LPS): 100% | % Survival ([6]; 14 hours, peptide 5 mg/kg 24 hours after LPS): 100% | % Survival ([6]; 24 hours, peptide 5 mg/kg 2 hours after LPS): 100% | % Survival ([6]; 24 hours, peptide 5 mg/kg 24 hours after LPS): 100% | % Survival ([6]; 48 hours, peptide 5 mg/kg 2 hours after LPS): 80% | % Survival ([6]; 48 hours, peptide 5 mg/kg 24 hours after LPS): 100% | % Survival ([6]; 84 hours, peptide 5 mg/kg 2 hours after LPS): 50% | % Survival ([6]; 84 hours, peptide 5 mg/kg 24 hours after LPS): 100%
